Measurements taken from patent US8148097B2, “Screening method for identification of compounds with calcium-independent phospholipase A2β (iPLA2β) modulating activity” (Washington University, priority 2005, dated 2012).

Molecular target: T1, iPLA2β (Cricetulus griseus, UniProt A0A3L7I2I8)
T1 construct: (His)6; made in house; host or cells: Sf9 insect cells (baculovirus)
T1 sequence (A0A3L7I2I8 1-752 isoform A0A3L7I2I8-2): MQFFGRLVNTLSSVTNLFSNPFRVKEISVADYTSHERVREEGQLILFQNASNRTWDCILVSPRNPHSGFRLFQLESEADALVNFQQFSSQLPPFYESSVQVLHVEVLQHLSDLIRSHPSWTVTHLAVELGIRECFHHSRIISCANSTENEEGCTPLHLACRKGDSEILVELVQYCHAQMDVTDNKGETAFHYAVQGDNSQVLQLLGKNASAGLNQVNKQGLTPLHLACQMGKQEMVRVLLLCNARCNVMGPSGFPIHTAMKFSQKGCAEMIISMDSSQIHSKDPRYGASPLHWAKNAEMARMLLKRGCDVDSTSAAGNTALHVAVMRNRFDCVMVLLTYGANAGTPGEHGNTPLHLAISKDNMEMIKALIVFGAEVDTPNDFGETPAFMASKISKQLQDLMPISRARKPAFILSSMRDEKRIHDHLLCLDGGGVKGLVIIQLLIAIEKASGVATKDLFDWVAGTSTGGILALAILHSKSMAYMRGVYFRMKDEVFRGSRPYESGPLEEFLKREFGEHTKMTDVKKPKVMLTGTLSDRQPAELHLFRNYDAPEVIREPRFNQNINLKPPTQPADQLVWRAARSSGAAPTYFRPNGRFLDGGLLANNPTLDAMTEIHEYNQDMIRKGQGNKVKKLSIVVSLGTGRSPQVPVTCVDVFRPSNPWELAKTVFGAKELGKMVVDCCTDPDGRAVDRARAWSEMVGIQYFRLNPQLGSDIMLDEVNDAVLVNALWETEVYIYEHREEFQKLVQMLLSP
Assay: iPLA2β phospholipase A2 activity with radiolabeled POPC substrate
Type: biochemical
Settings: oleoyl-CoA 10 μM, [14C]-POPC substrate, FIG. 11I
Protocol: FIG. 9—Calcium-independent iPLA2β was pre-incubated in the presence of Ca^2+ (1 mM) or Ca^2+-CaM (3 μg) on ice before addition to 95 μM POPC containing either 5 mol % [1-^14C]-POPC or [1-^14C]-palmitoyl-CoA in 100 mM Tris-HCl, pH 7.2. After incubation at 37° C. for 3 min, reactions were terminated by vortexing in the presence of butanol and released radiolabeled fatty acids were resolved by TLC and quantitated by liquid scintillation spectrometry as described in Experimental Procedures.
FIGS. 11A-11D—Purified iPLA2β+/−Ca^2+/CaM was incubated with POPC/BODIPY-PC (95:5 mol %) host vesicles for 2 min at 37° C. with the indicated concentrations of guest oleoyl-CoA. Relative fluorescence was recorded utilizing 495 nm excitation and 515 nm emission wavelengths as described in Experimental Procedures. […] Radiolabeled fatty acid was extracted into butanol, resolved by TLC, and quantified by scintillation spectrometry as described in Experimental Procedures.
Phospholipase A2 and Acyl-CoA Hydrolase Enzymatic Assays—Purified recombinant iPLA2β(His)6 (peptide disclosed as SEQ ID NO: 4) (0.1-1 μg) was incubated with radiolabeled phospholipid or acyl-CoA in 25 mM Tris-HCl, pH 7.2 containing 1 mM EGTA (200 μl final volume) for 1-2 mm at 37° C. […] Incorporation of acyl-CoA into the POPC/DOPS vesicles employed was determined as described previously (64). […]

CCCCCCCC/C=C\CCCCCCCC(=O)SCCNC(=O)CCNC(=O)[C@H](O)C(C)(C)COP(=O)(O)OP(=O)(O)OC[C@H]1O[C@@H](n2cnc3c(N)ncnc32)[C@H](O)[C@@H]1OP(=O)(O)O [oleoyl-CoA]
inhibition at 10 µM (no CaM, read-out: inhibition of iPLA2β activity by oleoyl-CoA alone): 20% | activity of CaM-inhibited iPLA2β, % of the activity observed with oleoyl-CoA alone: approximately 75%
